Data on two molecules can be found in patent US8436039B2, “Inhibitors of the ATB(0,+) transporter and uses thereof” (Georgia Health Sciences University Research Institute, Inc., priority 2008, dated 2013).

The test system of series [1] is MCF7 cells. Kind of series: Colony formation assay, dose-response in MCF7 cells. The class given is cell-based. Conditions: Homo sapiens, same assay conditions, read-out: IC50 for inhibition of colony formation. How it is done: (§1) The colony formation assay was performed as described previously (Thangaraju et al., 2006, Cancer Res. 66, 11560-11564). Mammary epithelial cells were seeded on to 6-well plates (10000 cells per well) in DMEM. After 24 hours, cells were exposed to varying concentrations of α-methyl-DL-tryptophan or 1-methyl-DL-tryptophan for 2 weeks, changing medium every 2 days. Cells were washed with PBS and fixed in 100% (v/v) methanol for 30 min followed by staining with KaryoMAX Giemsa stain for one hour. The wells were washed with water and dried overnight at room temperature. Finally, the dye in the wells was dissolved with 1% SDS in 0.2 M NaOH for one hour, and the attenuance of the released dye was measured at 630 nm.
(§2) The present studies have identified α-methyl-DL-tryptophan as a blocker of ATB^0,+ and also have shown that the compound is able to block the transport of amino acids via ATB^0,+ under conditions that stimulate those in vivo in terms of amino acid concentrations. […] For this, we treated the human mammary epithelial cell lines with 2.5 mM α-methyl-DL-tryptophan in the presence of regular culture medium for 12 days in clonogenic assay and quantified the colony formation for each cell line in the presence and absence of α-methyl-DL-tryptophan (FIG. 8). […]

For series [2], the system named is HMEC, HBL100 and MCF10A cells. Description: Colony formation assay, non-malignant ATB^0,+-negative mammary epithelial cell lines. Conditions: 2.5 mM, 12 days. The class given is cell-based, human. How it is done:
as §1, §2

The conditions of series [3]: mice; 2 mg/ml in drinking water; cited from earlier work.

Take `CC(N)(Cc1c[nH]c2ccccc12)C(=O)O` (racemic) [α-methyl-DL-tryptophan]: in series [1], the half-inhibitory concentration (IC50) came to 160 ± 15 µM. Besides, the “effect on ability to form colonies” value in series [2] is listed as “no effect”.
On to `Cn1cc(C[C@@H](N)C(=O)O)c2ccccc21` [1-methyl-D-tryptophan], for which the plasma levels in series [3] was 35 to 40 µM.

In general, IC50 refers to the concentration at which inhibition is half-maximal.
